The values below come from ChEMBL document CHEMBL1148680 (Bioorg Med Chem Lett, 2006).

In data set [1] the target is T1, hERG (KCNH2) (Homo sapiens, UniProt Q12809). As to the kind of experiment: Inhibition of [3H]dofetilide binding to HERG expressed in HEK293 cells at 300 nM. It is filed as cell-based. To be noted: HEK293 cells that express hERG, probe [3H]dofetilide. On the technique in general: hERG is a cardiac potassium channel; its block is linked to QT prolongation.
The test system of data set [2] is Human immunodeficiency virus. As to the kind of experiment: Antiviral activity against HIV BaL in PM1 cell. It is filed as functional. To be noted: Human immunodeficiency virus 1, BaL.
A short description of data set [3]: Distribution coefficient, log D of the compound. It is filed as physicochemical. Particulars: octanol/water.
Data set [4] has as its target C-C chemokine receptor type 5 (Homo sapiens, UniProt P51681). As to the kind of experiment: Inhibition of [125I]MIP-1beta binding to CCR5 expressed in HEK293 cells. It is filed as cell-based.
Data set [5] has as its target T1, hERG (KCNH2). As to the kind of experiment: Inhibition of [3H]dofetilide binding to HERG expressed in HEK293 cells at 100 nM. Format: cell-based. Particulars: HEK293 cells that express hERG, probe [3H]dofetilide.
The nature of data set [6]: Dissociation constant, pKa of the compound. It is filed as physicochemical.
For data set [7], the target named is Voltage-gated inwardly rectifying potassium channel KCNH2 (Homo sapiens, UniProt Q12809). In words: Inhibition of [3H]dofetilide binding to HERG expressed in HEK293 cells. Format: cell-based.
Voltage-gated inwardly rectifying potassium channel KCNH2, sequence (Q12809 whole entry): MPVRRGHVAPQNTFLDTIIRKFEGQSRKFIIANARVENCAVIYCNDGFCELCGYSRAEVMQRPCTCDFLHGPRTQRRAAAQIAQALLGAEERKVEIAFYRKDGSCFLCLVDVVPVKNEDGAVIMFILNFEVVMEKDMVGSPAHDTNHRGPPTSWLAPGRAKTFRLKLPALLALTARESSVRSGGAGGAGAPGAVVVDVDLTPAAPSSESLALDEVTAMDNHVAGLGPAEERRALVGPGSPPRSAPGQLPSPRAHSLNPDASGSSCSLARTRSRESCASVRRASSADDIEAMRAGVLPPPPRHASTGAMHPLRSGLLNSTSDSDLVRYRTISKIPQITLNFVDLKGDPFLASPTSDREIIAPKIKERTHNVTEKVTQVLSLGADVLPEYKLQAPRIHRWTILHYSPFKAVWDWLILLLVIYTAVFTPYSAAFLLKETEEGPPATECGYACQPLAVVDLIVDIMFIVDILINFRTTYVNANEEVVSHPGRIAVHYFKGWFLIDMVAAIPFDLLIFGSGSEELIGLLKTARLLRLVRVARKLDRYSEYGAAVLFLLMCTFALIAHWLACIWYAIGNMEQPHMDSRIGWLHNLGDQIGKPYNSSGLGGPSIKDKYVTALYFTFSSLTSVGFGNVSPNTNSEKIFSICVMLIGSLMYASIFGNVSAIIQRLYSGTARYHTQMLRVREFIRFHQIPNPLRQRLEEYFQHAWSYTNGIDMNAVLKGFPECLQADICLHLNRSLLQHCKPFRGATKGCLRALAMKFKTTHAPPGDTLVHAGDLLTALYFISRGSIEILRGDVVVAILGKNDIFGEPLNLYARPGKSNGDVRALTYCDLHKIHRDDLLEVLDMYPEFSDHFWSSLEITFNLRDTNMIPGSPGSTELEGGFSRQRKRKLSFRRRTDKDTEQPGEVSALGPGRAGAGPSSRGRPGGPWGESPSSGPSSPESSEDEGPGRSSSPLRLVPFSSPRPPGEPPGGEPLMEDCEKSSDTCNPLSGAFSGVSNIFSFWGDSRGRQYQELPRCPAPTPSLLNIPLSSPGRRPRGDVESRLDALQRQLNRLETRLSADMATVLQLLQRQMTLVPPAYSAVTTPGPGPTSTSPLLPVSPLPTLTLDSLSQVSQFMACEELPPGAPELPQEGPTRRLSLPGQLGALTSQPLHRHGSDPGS

C-C chemokine receptor type 5, sequence (P51681 whole entry): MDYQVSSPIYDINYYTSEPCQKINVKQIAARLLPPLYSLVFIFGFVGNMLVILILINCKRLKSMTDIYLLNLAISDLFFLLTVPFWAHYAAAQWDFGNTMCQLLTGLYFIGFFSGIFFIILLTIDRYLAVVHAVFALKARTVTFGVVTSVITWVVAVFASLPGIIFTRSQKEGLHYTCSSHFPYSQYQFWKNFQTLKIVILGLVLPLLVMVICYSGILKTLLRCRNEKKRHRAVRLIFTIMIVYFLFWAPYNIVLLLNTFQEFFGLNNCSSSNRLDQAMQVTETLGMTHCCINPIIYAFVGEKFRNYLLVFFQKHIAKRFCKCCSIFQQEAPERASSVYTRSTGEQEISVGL
T1 sequence (Q12809 whole entry): as the sequence (Q12809 whole entry) above

Turning to `Cc1nnc(C(C)C)n1C1CC2CCC(C1)N2CC[C@H](NC(=O)CCC(F)(F)F)c1ccccc1` (stereo partly drawn), at 0.3 µM the inhibition on hERG (KCNH2) [1] was 14%. In addition, it took 14 nM to reach the 90% level in data set [2] (IC90). Further, the logD (in general, the decadic logarithm of the distribution of all forms, ionised or not, between an organic phase and buffer at a given pH) in data set [3] turned out to be 1.8.
On to `Cc1nc(C2CCN(CC[C@H](NC(=O)C3CCC3)c3ccccc3)CC2)no1`, for which the IC50 – broadly, the concentration needed to halve the response being measured – in data set [4] came out at 70 nM.
For the molecule `Cc1nnc(C(C)C)n1C1CC2CCC(C1)N2CC[C@H](NC(=O)C1CCCC1)c1ccccc1` (stereo partly drawn), on hERG (KCNH2) [1], the inhibition (as a rule, the relative decrease from the control value, in per cent) at 0.3 µM is 18%. The 90% effect level in data set [2] (IC90) was put at 2 nM. In data set [3], this molecule had a logD of 2.1.
Turning to `O=C(N[C@@H](CCN1CCC(c2noc(Cc3ccccc3)n2)CC1)c1ccccc1)C1CCC1`, the IC50 in data set [4] worked out at 20 nM. Besides, the inhibition at 0.1 µM at hERG (KCNH2) [5] was determined as 50%.
As for `Cc1nnc(Cc2ccccc2)n1C1CCN(CC[C@H](NC(=O)C2CCC2)c2ccccc2)CC1`, the IC50 in data set [4] came out at 250 nM.
`Cc1nnc(C(C)C)n1C1CC2CCC(C1)N2CC[C@H](NC(=O)C1CCC1)c1ccccc1` (stereo partly drawn) returned an inhibition at 0.3 µM at hERG (KCNH2) [1] of 30%. At hERG (KCNH2) [5], testing at 0.1 µM gave an inhibition of 14%. For the same molecule, in data set [2], it took 8 nM to reach the 90% level (IC90). In data set [3], the logD was determined as 1.6.
With `O=C(N[C@@H](CCN1CCC(n2cnc(Cc3ccccc3)n2)CC1)c1ccccc1)C1CCC1`, the IC50 in data set [4] amounted to 5 nM. This counts as single-digit nanomolar.
As for `Cc1nnc(C)n1C1CCN(CC[C@H](NC(=O)C2CCC2)c2ccccc2)CC1`, the IC50 in data set [4] amounted to 50 nM. The inhibition at 0.1 µM on hERG (KCNH2) [5] turned out to be 5%.
On hERG (KCNH2) [5], `Cc1nnc(C)n1C1CC2CCC(C1)N2CC[C@H](NC(=O)C1CCC1)c1ccccc1` (stereo partly drawn) had an inhibition at 0.1 µM of 10%. Also, the 90% effect level in data set [2] (IC90) was put at 13 nM.
`Cc1nc2ccccc2n1C1CC2COCC(C1)N2CC[C@H](NC(=O)C1CCC1)c1ccccc1` (stereo partly drawn) [OXOGRANATANE]: the IC50 in data set [4] came to 39 nM. The same molecule returned an inhibition at 0.3 µM on hERG (KCNH2) [1] of 70%. Also, the pKa (commonly the negative logarithm of the acid dissociation constant) in data set [6] was found to be 6.
As for `Cc1nc2ccccc2n1C1CC2CCC(C1)N2CC[C@H](NC(=O)C1CCC1)c1ccccc1` (stereo partly drawn), 0.3 µM produced 80% inhibition on hERG (KCNH2) [1]. The same molecule showed a pKa in data set [6] of 7.8.
As to `O=C(Cc1ccc(F)cc1)NC1CCN(CC[C@H](NC(=O)C2CCC2)c2ccccc2)CC1`, the IC50 in data set [4] came out at 0.7 nM.
The molecule `Cc1nnc(C(C)C)n1[C@@H]1C[C@H]2CC[C@@H](C1)N2CC[C@H](NC(=O)C1CCC(F)(F)CC1)c1ccccc1` [MARAVIROC] showed a logD in data set [3] of 2.1.
Take `Cc1nnc(C(C)C)n1[C@H]1C[C@H]2CC[C@@H](C1)N2CC[C@H](NC(=O)C1CCC(F)(F)CC1)c1ccccc1` [MARAVIROC]: the 90% effect level in data set [2] (IC90) was put at 2 nM.
Turning to `CC(=O)N(CCOc1ccc(NS(C)(=O)=O)cc1)CCc1ccc(NS(C)(=O)=O)cc1`, the Activity in data set [7] came out at 0.021 µM.
